Experimental data as given in patent US20200352905A1, “6-(2,4-DICHLOROPHENYL)-5-[4-[(3S)-1-(3-FLUOROPROPYL)PYRROLIDIN-3-YL]OXYPHENYL]-8,9-DIHYDRO-7H-BENZO[7]ANNULENE-2-CARBOXYLIC ACID FOR USE IN METASTATIC OR ADVANCED BREAST CANCER PATIENTS” (SANOFI, priority 2019, published 2020).
Where two headings read alike, the source gives them in different places.

Assay: TED14856 Part A: plasma pharmacokinetics of compound (1)
Assay type: in vivo, human

## O=C(O)c1ccc2c(c1)CCCC(c1ccc(Cl)cc1Cl)=C2c1ccc(O[C@H]2CCN(CCCF)C2)cc1 [compound (1), 6-(2,4-dichlorophenyl)-5-[4-[(3S)-1-(3-fluoropropyl)pyrrolidin-3-yl]oxyphenyl]-8,9-dihydro-7H-benzo[7]annulene-2-carboxylic acid]
After repeated administrations
  variability of exposure parameters (average CV): ~45%
After single dose administration
  total variability of exposure parameters (average CV): > 60%
female, human, plasma, oral, 20 mg, single 20 mg, Cycle1 Day 1, fasted, N=3, read-out: Cmax (Mean ± SD)
  Cmax: 187 ± 46.7 ng/mL
female, human, plasma, oral, 150 mg, single 150 mg, Cycle1 Day 1, fasted, N=3, read-out: Cmax (Mean ± SD)
  Cmax: 1310 ± 1380 ng/mL
female, human, plasma, oral, 200 mg, single 200 mg, Cycle1 Day 1, fasted, N=4, read-out: Cmax (Mean ± SD)
  Cmax: 1650 ± 1340 ng/mL
female, human, plasma, oral, 400 mg, single 400 mg, Cycle1 Day 1, fasted, N=3, read-out: Cmax (Mean ± SD)
  Cmax: 4740 ± 2920 ng/mL
female, human, plasma, oral, 20 to 600 mg once a day, fasting, Day 1 and Day 22 Cycle 1, read-out: median time to achieve maximum concentration (tmax)
  Tmax: ~3 h
female, human, plasma, oral, across the 20-600 mg range, read-out: mean apparent systemic clearance
  clearance: 233 to 250 mL/min
female, human, plasma, oral, across the 20-600 mg range, read-out: mean apparent volume of distribution
  Vd: ~120 L
female, human, plasma, oral, estimated over 48 hours after a single dose on Day 1, read-out: mean apparent terminal half-life
  half-life: ≥ 8 h
human, plasma, oral, 20 mg, repeated 20 mg once daily, Cycle1 Day 22, fasted, N=3, read-out: AUC0-24 (Geometric Mean)
  AUC(0-t): 1350 ng·h/mL
human, plasma, oral, 20 mg, repeated 20 mg once daily, Cycle1 Day 22, fasted, N=3, read-out: AUC0-24 (Mean ± SD)
  AUC(0-t): 1630 ± 1120 ng·h/mL
human, plasma, oral, 20 mg, repeated 20 mg once daily, Cycle1 Day 22, fasted, N=3, read-out: Cmax (Geometric Mean)
  Cmax: 203 ng/mL
human, plasma, oral, 20 mg, repeated 20 mg once daily, Cycle1 Day 22, fasted, N=3, read-out: Cmax (Mean ± SD)
  Cmax: 218 ± 95.3 ng/mL
human, plasma, oral, 20 mg, repeated 20 mg once daily, Cycle1 Day 22, fasted, N=3, read-out: tmax (median)
  Tmax: 2.17 h
human, plasma, oral, 20 mg, single 20 mg, Cycle1 Day 1, fasted, N = 1, read-out: Vss/F (Geometric Mean)
  Vd/F: 81.9 L
human, plasma, oral, 20 mg, single 20 mg, Cycle1 Day 1, fasted, N = 1, read-out: Vss/F (Mean ± SD)
  Vd/F: 81.9 L
human, plasma, oral, 20 mg, single 20 mg, Cycle1 Day 1, fasted, N=3, read-out: AUC0-24 (Geometric Mean)
  AUC(0-t): 924 ng·h/mL
human, plasma, oral, 20 mg, single 20 mg, Cycle1 Day 1, fasted, N=3, read-out: Cmax (Geometric Mean)
  Cmax: 183 ng/mL
human, plasma, oral, 20 mg, single 20 mg, Cycle1 Day 1, fasted, N=3, read-out: tmax (median)
  Tmax: 1.52 h
human, plasma, oral, 150 mg, repeated 150 mg once daily, Cycle1 Day 22, fasted, N=2, read-out: AUC0-24 (Geometric Mean)
  AUC(0-t): 15000 ng·h/mL
human, plasma, oral, 150 mg, repeated 150 mg once daily, Cycle1 Day 22, fasted, N=2, read-out: AUC0-24 (Mean ± SD)
  AUC(0-t): 15900 ng·h/mL
human, plasma, oral, 150 mg, repeated 150 mg once daily, Cycle1 Day 22, fasted, N=2, read-out: Cmax (Geometric Mean)
  Cmax: 2230 ng/mL
human, plasma, oral, 150 mg, repeated 150 mg once daily, Cycle1 Day 22, fasted, N=2, read-out: Cmax (Mean ± SD)
  Cmax: 2390 ng/mL
human, plasma, oral, 150 mg, repeated 150 mg once daily, Cycle1 Day 22, fasted, N=2, read-out: tmax (median)
  Tmax: 2.97 h
human, plasma, oral, 150 mg, single 150 mg, Cycle1 Day 1, fasted, N = 1, read-out: Vss/F (Geometric Mean)
  Vd/F: 61.5 L
human, plasma, oral, 150 mg, single 150 mg, Cycle1 Day 1, fasted, N = 1, read-out: Vss/F (Mean ± SD)
  Vd/F: 61.5 L
human, plasma, oral, 150 mg, single 150 mg, Cycle1 Day 1, fasted, N=3, read-out: AUC0-24 (Geometric Mean)
  AUC(0-t): 6860 ng·h/mL
human, plasma, oral, 150 mg, single 150 mg, Cycle1 Day 1, fasted, N=3, read-out: AUC0-24 (Mean ± SD)
  AUC(0-t): 9140 ± 8730 ng·h/mL
human, plasma, oral, 150 mg, single 150 mg, Cycle1 Day 1, fasted, N=3, read-out: Cmax (Geometric Mean)
  Cmax: 884 ng/mL
human, plasma, oral, 150 mg, single 150 mg, Cycle1 Day 1, fasted, N=3, read-out: tmax (median)
  Tmax: 3 h
human, plasma, oral, 200 mg, repeated 200 mg once daily, Cycle1 Day 22, fasted, N=3, read-out: AUC0-24 (Geometric Mean)
  AUC(0-t): 13400 ng·h/mL
human, plasma, oral, 200 mg, repeated 200 mg once daily, Cycle1 Day 22, fasted, N=3, read-out: AUC0-24 (Mean ± SD)
  AUC(0-t): 13900 ± 4380 ng·h/mL
human, plasma, oral, 200 mg, repeated 200 mg once daily, Cycle1 Day 22, fasted, N=3, read-out: Cmax (Geometric Mean)
  Cmax: 2030 ng/mL
human, plasma, oral, 200 mg, repeated 200 mg once daily, Cycle1 Day 22, fasted, N=3, read-out: Cmax (Mean ± SD)
  Cmax: 2150 ± 873 ng/mL
human, plasma, oral, 200 mg, repeated 200 mg once daily, Cycle1 Day 22, fasted, N=3, read-out: tmax (median)
  Tmax: 2.07 h
human, plasma, oral, 200 mg, single 200 mg, Cycle1 Day 1, fasted, N=4, read-out: AUC0-24 (Geometric Mean)
  AUC(0-t): 9760 ng·h/mL
human, plasma, oral, 200 mg, single 200 mg, Cycle1 Day 1, fasted, N=4, read-out: AUC0-24 (Mean ± SD)
  AUC(0-t): 13600 ± 13800 ng·h/mL
human, plasma, oral, 200 mg, single 200 mg, Cycle1 Day 1, fasted, N=4, read-out: Cmax (Geometric Mean)
  Cmax: 1340 ng/mL
human, plasma, oral, 200 mg, single 200 mg, Cycle1 Day 1, fasted, N=4, read-out: Vss/F (Geometric Mean)
  Vd/F: 173 L
human, plasma, oral, 200 mg, single 200 mg, Cycle1 Day 1, fasted, N=4, read-out: Vss/F (Mean ± SD)
  Vd/F: 213 ± 127 L
human, plasma, oral, 200 mg, single 200 mg, Cycle1 Day 1, fasted, N=4, read-out: tmax (median)
  Tmax: 2.98 h
human, plasma, oral, 400 mg, repeated 400 mg once daily, Cycle1 Day 22, fasted, N=3, read-out: AUC0-24 (Geometric Mean)
  AUC(0-t): 29500 ng·h/mL
human, plasma, oral, 400 mg, repeated 400 mg once daily, Cycle1 Day 22, fasted, N=3, read-out: AUC0-24 (Mean ± SD)
  AUC(0-t): 36800 ± 23500 ng·h/mL
human, plasma, oral, 400 mg, repeated 400 mg once daily, Cycle1 Day 22, fasted, N=3, read-out: Cmax (Geometric Mean)
  Cmax: 3370 ng/mL
human, plasma, oral, 400 mg, repeated 400 mg once daily, Cycle1 Day 22, fasted, N=3, read-out: Cmax (Mean ± SD)
  Cmax: 4020 ± 2460 ng/mL
human, plasma, oral, 400 mg, repeated 400 mg once daily, Cycle1 Day 22, fasted, N=3, read-out: tmax (median)
  Tmax: 2.95 h
human, plasma, oral, 400 mg, single 400 mg, Cycle1 Day 1, fasted, N=3, read-out: AUC0-24 (Geometric Mean)
  AUC(0-t): 37600 ng·h/mL
